In ChEMBL document CHEMBL1150132, “Five new discodermolide analogues from the marine sponge Discodermia species” (J Nat Prod, 2002):
pIC50: −log10 of the molar value.

Legend:
A549 = test: Cytotoxicity against human A549 cells; type: functional, cell-based
P388 = test: Cytotoxicity against mouse P388 cells after 48 hrs by MTT assay; type: functional, cell-based; settings: P388, 48 h

C=C/C=C\[C@H](C)[C@H](OC(N)=O)[C@@H](C)[C@H](O)[C@@H](C)C/C(C)=C\[C@H](C)[C@@H](O)[C@@H](C)/C=C\[C@@H](O)C[C@H](O)[C@H](C)[C@H](O)[C@@H](C)C(=O)OC
pIC50 (A549): 7.13
pIC50 (P388): 7.18

C=C/C=C\[C@H](C)[C@H](OC(N)=O)[C@@H](C)[C@H](O)[C@@H](C)C/C(C)=C\[C@H](C)[C@@H](O)[C@@H](C)/C=C\[C@@H](O)C[C@@H]1OC(=O)C[C@@H](O)[C@H]1C
pIC50 (A549): 6.92
pIC50 (P388): 6.76

C=C/C=C\[C@H](C)[C@H](OC(N)=O)[C@@H](C)[C@H](O)[C@@H](C)C/C(C)=C\[C@H](C)[C@@H](O)[C@@H](C)/C=C\[C@@H](O)C[C@@H]1OC(=O)[C@@H](C)[C@@H](O)[C@H]1C
pIC50 (A549): 7.17
pIC50 (P388): 6.87

C=C/C=C\[C@H](C)[C@H](O)[C@@H](C)[C@H](O)[C@@H](C)C/C(C)=C\[C@H](C)[C@@H](O)[C@@H](C)/C=C\[C@@H](O)C[C@@H]1OC(=O)[C@H](C)[C@@H](O)[C@H]1C
pIC50 (A549): 7.13
pIC50 (P388): 6.89

C=C/C=C\C(C)C(OC(N)=O)C(C)C(O)C(C)/C=C(\C)C1C(C)C(O)C(C)C1/C=C/C[C@@H]1OC(=O)[C@H](C)[C@@H](O)[C@@H]1C (stereo partly specified)
pIC50 (A549): 5.35
pIC50 (P388): 5.30

C=C/C=C\[C@H](C)[C@H](OC(N)=O)[C@@H](C)[C@H](O)[C@@H](C)C/C(C)=C\[C@H](C)[C@@H](O)[C@@H](C)/C=C\[C@@H](O)C[C@@H]1OC(=O)[C@H](C)[C@@H](O)[C@H]1C [DISERMOLIDE]
pIC50 (A549): 7.87
